{"source": "patent US20250041227A1", "about": "“TABLET FORMULATIONS OF RBP4 INHIBITORS AND METHODS OF USE” (BELITE BIO, INC, priority 2021, published 2025)", "tested_on": "male cynomolgus monkeys", "experiment": "In-life clinical observations (tolerability)", "format": "in vivo", "details": "single PO 5 mg/animal per phase, 6 phases", "description": "The test system and study design were as follows. A total of 4 male non-naïve cynomolgus monkeys were assigned to the study (age: >2 years old and body weight: 2.5-4 kg). Each animal received a single dose of capsule or tablet at the start of each phase and there were 6 phases in total. The same animals, Animal Nos. C1001, C1002, C1003 and C1004, were used for each phase with a minimum 5-day washout period between dosing for each phase, except for Animal No. C1002, Animal Tattoo No. C1708339, which was replaced by another non-naïve cynomolgus monkey, Animal Tattoo No. C1703319, due to dosing failure that happened in Phase 3. As a result, Animal Tattoo No. C1708339 was used in Phase 1 and 2, Animal Tattoo No. C1703319 was used in Phases 3 to 6. All animals were fasted overnight prior to dosing, food was returned at 4 hours post-dose.\nAnimals were physically examined prior to study initiation to confirm their health. Clinical observations were performed twice daily (approximately 9:30 a.m. and 4:00 p.m.). Cage-side observations for general health and appearance were also performed. On dosing day, animals were also observed before and after each sample collection time point. General condition, behavior, activity, excretion, respiration or other unusual observations noted throughout the study were recorded."}
{"smiles": "CC(=O)N1CCc2c(C(=O)N3CCC(c4ccc(F)c(F)c4C(F)(F)F)CC3)n[nH]c2C1", "note": "[Compound 1, 1-(3-(4-(3,4-difluoro-2-(trifluoromethyl)phenyl)piperidine-1-carbonyl)-1,4,5,7-tetrahydro-6H-pyrazolo[3,4-c]pyridin-6-yl)ethan-1-one]", "values": [{"measurement": "adverse effects during the in-life phase", "result": "No adverse effects were observed"}]}
